How the values were obtained:
[1] = tested on: corneal barrier of the in vitro cornea device (epithelial, fibroblast, endothelial triculture); assay: Permeability of the in vitro cornea device to FSS after trypan blue exposure; assay type: cell-based; details: trypan blue injected into TFEp channel at 3 μL/min for 4 min, incubated at 37° C. for 15 min; then FSS injected into TFEp channel and permeability assayed; worded "can be"
Method: (§1) In some embodiments, all channels of the device can be coated with human fibronectin to facilitate cellular attachment. For example, primary human corneal fibroblasts can be seeded on Day 0. Fibroblasts can be harvested, concentrated to 1×10^7 cells/mL and injected into the stromal chamber via a remote head syringe pump at 5 μL/min until cells are homogenously distributed. Devices can then be incubated at 37° C., 5% CO2 for 4 hours to allow for attachment. Media can be subsequently refreshed every 24 hours. Primary human corneal epithelial cells can be seeded into the TFEp circulation channel on Day 3. […]
(§2) Viability can be assessed on-chip as an endpoint for epithelial, fibroblast, and endothelial cells. Devices are prepared for viability quantitation by incubation with calcein AM and ethidium homodimer in PBS. After rinsing the cells with PBS, fluorescent images are taken via microscope, and the data was analyzed to determine cornea triculture viability (scc, FIG. 5A). […]
Following exposure, FSS can be injected into the TFEp channel and permeability assayed. […] Samples can be taken from cell-laden channels (individually or combined) and placed in a low volume, white walled […] plate for luminescence analysis using a plate reader. […] The increase in AK release in arbitrary luminescence units compares the toxic exposure of trypan blue to positive and negative controls. […]

[2] = tested on: cells of the in vitro cornea device (cell-laden channels); assay: Cytotoxicity by adenylate kinase release (luminescence) from the cell-laden channels of the in vitro cornea device; assay type: cell-based; details: trypan blue exposure; compared with positive control (100% death by lysis buffer) and negative control (media only); arbitrary luminescence units; worded "expected"
Method: as §1, §2
Following exposure, FSS can be injected into the TFEp channel and permeability assayed. […] Samples can be taken from cell-laden channels (individually or combined) and placed in a low volume, white walled […] plate for luminescence analysis using a plate reader. […] The increase in AK release in arbitrary luminescence units compares the toxic exposure of trypan blue to positive and negative controls.

Cc1cc(-c2ccc(/N=N/c3c(S(=O)(=O)O)cc4cc(S(=O)(=O)O)cc(N)c4c3O)c(C)c2)ccc1/N=N/c1c(S(=O)(=O)O)cc2cc(S(=O)(=O)O)cc(N)c2c1O [trypan blue]
Permeability in trypan blue treated devices compared to controls [1]: 10 fold | Increase in adenylate kinase release [2]: 1.5 fold

— US20240197166A1, “COMPUTATIONAL IN SILICO MODEL FOR CORNEA BARRIER” (CFD Research Corporation, priority 2022, published 2024)
